Key:
[1] = molecular target: T1, Estrogen receptor beta (Homo sapiens, UniProt Q92731)
[2] = molecular target: T1, Estrogen receptor beta; assay: Agonist activity at ER-beta (unknown origin) transfected in HEK293T cells after 24 hrs by Steady-Glo luciferase reporter gene assay relative to estradiol; assay type: cell-based; settings: HEK-293T
[3] = molecular target: T2, Estrogen receptor (Homo sapiens, UniProt P03372)
T2 sequence (P03372 whole entry): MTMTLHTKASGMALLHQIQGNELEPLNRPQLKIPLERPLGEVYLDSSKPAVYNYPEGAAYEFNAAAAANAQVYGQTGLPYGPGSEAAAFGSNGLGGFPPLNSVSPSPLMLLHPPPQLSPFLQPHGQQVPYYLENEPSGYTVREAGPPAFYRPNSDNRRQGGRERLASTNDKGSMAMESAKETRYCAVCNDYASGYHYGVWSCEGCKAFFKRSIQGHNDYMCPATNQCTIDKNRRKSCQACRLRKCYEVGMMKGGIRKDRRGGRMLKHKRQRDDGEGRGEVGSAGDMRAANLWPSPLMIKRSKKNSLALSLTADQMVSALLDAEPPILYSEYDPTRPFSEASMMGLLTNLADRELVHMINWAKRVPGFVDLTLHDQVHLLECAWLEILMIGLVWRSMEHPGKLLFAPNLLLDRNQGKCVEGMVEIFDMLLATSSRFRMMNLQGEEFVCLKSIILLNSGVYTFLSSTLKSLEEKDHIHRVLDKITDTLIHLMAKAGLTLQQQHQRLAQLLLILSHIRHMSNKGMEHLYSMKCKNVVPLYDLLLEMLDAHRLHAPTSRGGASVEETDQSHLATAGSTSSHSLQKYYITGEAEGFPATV
Description: Agonist activity at ER-alpha (unknown origin) transfected in HEK293T cells after 24 hrs by Steady-Glo luciferase reporter gene assay

[4] = molecular target: T1, Estrogen receptor beta; assay: Agonist activity at human ER-beta transfected in human 293 cells assessed as ALP reporter protein expression after 72 hrs by chemiluminescence assay; assay type: cell-based

T1 sequence (Q92731 whole entry): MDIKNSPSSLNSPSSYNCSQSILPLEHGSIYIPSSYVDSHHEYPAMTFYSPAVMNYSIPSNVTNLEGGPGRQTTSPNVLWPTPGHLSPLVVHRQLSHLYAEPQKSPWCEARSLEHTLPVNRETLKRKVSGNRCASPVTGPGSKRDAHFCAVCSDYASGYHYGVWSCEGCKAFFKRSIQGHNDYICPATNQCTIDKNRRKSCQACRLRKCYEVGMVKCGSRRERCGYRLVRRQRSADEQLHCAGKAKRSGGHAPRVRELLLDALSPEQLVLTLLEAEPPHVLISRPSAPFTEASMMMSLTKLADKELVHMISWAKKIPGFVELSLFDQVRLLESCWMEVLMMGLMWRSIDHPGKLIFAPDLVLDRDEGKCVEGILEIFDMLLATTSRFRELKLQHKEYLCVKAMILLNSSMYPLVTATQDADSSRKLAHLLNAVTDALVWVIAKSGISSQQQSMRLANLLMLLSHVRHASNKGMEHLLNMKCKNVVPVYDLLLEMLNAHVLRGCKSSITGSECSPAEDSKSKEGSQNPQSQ

SMILES	EC50 [1] [nM]	Efficacy [2] [%]	EC50 [3] [nM]	EC50 [4] [nM]
C[C@]12CC[C@@H](c3ccc(O)cc3)C[C@H]1CCC2=O	126	144	7940	–
C[C@]12CCC(c3ccc(O)cc3)C[C@H]1CC[C@@H]2O (some centres undefined)	0.398	127	31.6	–
C[C@]12CC[C@H](c3ccc(O)cc3)C[C@H]1CCC2=O	251	148	> 10000	–
C[C@]12CC[C@H](c3ccc(O)cc3)C[C@H]1C[C@H](O)[C@H]2O	20	108	10000	–

Further lines, results first:

EC50 [1] [nM]	Efficacy [2] [%]	EC50 [3] [nM]	EC50 [4] [nM]	SMILES
–	–	–	11	C[C@]12CC[C@@H]3c4ccc(O)cc4CC[C@H]3[C@@H]1C[C@H](O)[C@H]2O
0.126	–	–	–	C[C@]12CC[C@@H]3c4ccc(O)cc4CC[C@H]3[C@@H]1C[C@@H](O)[C@@H]2O [ESTRIOL]
